Test results: patent US20240174625A1, “COMPOSITIONS AND METHODS FOR TREATING TAUOPATHIES” (The Regents of the University of California, priority 2021, published 2024)

Assays:
NPEPPS = biological target: T1, NPEPPS (Homo sapiens, UniProt P55786); assay: Cell-based NPEPPS activity assay (Q-AMC fluorescence); details: log10 transformed; EC50 = concentration that elevates 50% NPEPPS activity (150% of DMSO baseline); HEK293T cells
T1 construct: endogenous in cells; host or cells: HEK293T
Protocol: HEK293T cells (AATC) were maintained in a complete media containing DMEM (Gibco 11995-065) in the presence of 10% fetal bovine serum (FBS, Gibco 10082147), […] penicillin and 50 μg/ml streptomycin (Gibco 15140163) at 37° C. with 5% CO2. NPEPPS activity assay was conducted in a fresh-prepared minimal medium containing essential amino acids, vitamin, AlbuMax (Invitrogen 11021-029) in 1×HBS buffer. Black wall, clear bottom 384-well assay plates (Greiner EK-30092) were coated with poly-L-ornithine (0.1 mg/ml, Sigma P3655) overnight and washed once with 1×PBS. 15 μl minimal medium was then added to each well. 250 nL of compounds dissolved in OmniSolve methylsulfoxide (dimethyl sulfoxide, DMSO, Sigma MX1456P) were pinned to each well via Biomek FX^P Liquid Handling Automation (Beckman Coulter) from compound source plates, i.e., either pre-made compound libraries or JMM compounds (20-step, 2-fold dilution) dissolved in OmniSolve DMSO prepared via Biomek automation in 384-well clear V-bottom polypropylene microplates (ThermoScientific 50-823-639). Cells were harvested, resuspended in minimal medium, and seeded at 16,500 cells/15 μl/well in the 384-well assay plates. 24 hrs later, 30 μl 200 μM H-Gln-AMC hydrobromide salt (Q-AMC, Bachem #I-1175) in 1×HBS containing 0.1% DMSO was added into each well. The fluorescent signal at excitation/emission wavelengths of 360/460 nm was measured immediately upon Q-AMC addition and 3 hrs post-Q-AMC. The change in fluorescence is measured as a readout of NPEPPS activity.
To identify small molecules that either increase NPEPPS levels or NPEPPS activity, a cell-based NPEPPS activity assay amenable to high-throughput screening (HTS) by adapting a fluorescent peptidase activity assay^2 was developed. Since NPEPPS is one of the only aminopeptidases capable of cleaving glutamine-peptide bonds^3 and the major aminopeptidase responsible for degradation of poly-glutamine sequences in the brain^4, a fluorogenic compound, glutamine-7-amino-4-methylcoumarin (Q-AMC), was selected as a substrate to measure NPEPPS activity. The peptide bond of Q-AMC is hydrolyzed by NPEPPS to release glutamine and a fluorescent product, 7-amino-4-methylcoumarin (AMC), when Q-AMC is added directly to the cell culture media. This change in fluorescence is measured as a readout of aminopeptidase activity (FIG. 2A). Overexpression of NPEPPS in HEK293T cells results in a significant increase in fluorescence, whereas knock-down or chemical inhibition of NPEPPS decrease fluorescence change (FIG. 2B-D), validating that the changes in fluorescence observed in the Q-AMC-based assay directly correlate with changes in NPEPPS activity. A high-throughput (HTS) screen (201,845 compounds) was conducted at the UCLA MSSR core (FIG. 2E). Follow-up assays and chemical clustering identified three series of compounds with distinct chemical clusters (FIG. 2F).
(§1) To investigate the effects of JMM compounds that enhance NPEPPS activity and assess their cellular toxicity, 139 compounds in the JMM series (i.e., JMM001-JMM139) were tested in dose responses (20-step, 2-fold dilution) using NPEPPS activity and viability assays in HEK293T cells. 76 compounds harboring different modifications produce concentration-dependent enhancement on NPEPPS activity compared to DMSO control (FIG. 4). […] A therapeutic index (TI, a ratio of IC50 over EC50) is used to evaluate the relative safety profiles of the compounds. […] 16 JMM compounds show both improved potency and reduced toxicity (EC50<10 μM and TI>10, Table 1).

HEK293T cells = assay: Cell viability assay (CellTiter Glo); assay type: cell-based, human; details: for IC50: Homo sapiens, HEK-293T, log10 transformed, IC50 = concentration that suppresses 50% cell viability, HEK293T cells; for Therapeutic index: ratio of IC50 (cell viability) over EC50 (NPEPPS activity)
Protocol: HEK293T cells (AATC) were maintained in complete media and cell viability assay was conducted in a fresh-prepared minimal medium containing essential amino acids, vitamin, AlbuMax (Invitrogen 11021-029) in 1×HBS buffer. White 384-well assay plates (Greiner EK-30080) were coated with poly-L-ornithine (0.1 mg/ml) overnight and washed once with 1×PBS. 15 μl minimal medium was then added to each well. 250 nl of compounds dissolved in OmniSolve DMSO were pinned to each well via Biomek FX^P Liquid Handling Automation from compound source plates. Cells were harvested, resuspended in minimal medium, and seeded at 16,500 cells/15 μl/well in the 384-well assay plates. 24 hrs later, 25 μl/well CellTiter Glo reagent (Promega G7572) was added into each well, and luminescence (0.5 second integration time) was acquired following manufacture's protocol. Luminescence count normalized to DMSO control is used as a readout of cell viability.
as §1

T1 sequence (P55786 whole entry): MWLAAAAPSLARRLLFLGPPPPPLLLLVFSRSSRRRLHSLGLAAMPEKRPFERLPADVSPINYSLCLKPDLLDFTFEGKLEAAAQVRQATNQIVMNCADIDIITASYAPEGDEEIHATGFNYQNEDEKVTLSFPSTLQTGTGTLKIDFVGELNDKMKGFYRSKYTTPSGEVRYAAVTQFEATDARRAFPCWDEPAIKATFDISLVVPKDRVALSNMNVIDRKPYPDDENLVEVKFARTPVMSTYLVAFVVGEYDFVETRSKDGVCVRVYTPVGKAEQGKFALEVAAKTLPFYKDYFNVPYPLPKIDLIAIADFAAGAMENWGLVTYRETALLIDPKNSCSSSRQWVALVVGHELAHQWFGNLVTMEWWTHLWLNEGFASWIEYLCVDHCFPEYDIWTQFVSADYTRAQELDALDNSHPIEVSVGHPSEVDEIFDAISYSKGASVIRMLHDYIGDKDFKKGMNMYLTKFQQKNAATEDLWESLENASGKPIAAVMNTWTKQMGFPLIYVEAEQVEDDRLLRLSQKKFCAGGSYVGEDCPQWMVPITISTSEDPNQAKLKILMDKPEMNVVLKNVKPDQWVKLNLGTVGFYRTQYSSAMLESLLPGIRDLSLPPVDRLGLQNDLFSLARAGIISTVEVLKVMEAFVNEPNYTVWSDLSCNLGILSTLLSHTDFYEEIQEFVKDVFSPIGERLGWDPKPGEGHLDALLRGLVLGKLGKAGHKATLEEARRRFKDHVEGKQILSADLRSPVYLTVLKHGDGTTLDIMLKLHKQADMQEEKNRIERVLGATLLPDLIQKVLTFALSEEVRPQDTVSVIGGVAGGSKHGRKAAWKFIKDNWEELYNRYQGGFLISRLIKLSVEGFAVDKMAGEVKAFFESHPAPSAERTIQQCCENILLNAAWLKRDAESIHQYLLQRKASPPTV

Row | Structure (SMILES) | EC50 (NPEPPS) [µM] | IC50 (HEK293T cells) [µM] | Therapeutic index (HEK293T cells)
1 | c1ccc(CNc2nsc3ccccc23)cc1 [JMM009] | 129 | 224 | 1.76
2 | CC(Nc1nsc2ccccc12)c1cccc2ccccc12 (stereo not drawn) [JMM080] | 9.33 | 105 | 11.09
3 | FC(F)(F)c1ccc(CNc2nsc3ccc(OCc4ccc(C(F)(F)F)cc4)cc23)cc1 [JMM137, N-(4-(Trifluoromethyl)benzyl)-5-((4-(trifluoromethyl)benzyl)oxy)benzo[d]isothiazol-3-amine] | 11.7 | 38.9 | 3.30
4 | COc1ccc(CNc2nsc3ccccc23)cc1 [JMM003] | 257 | 263 | 1.03
5 | FC(F)(F)c1ccc(CNc2nsc3cnccc23)cc1 [JMM065] | 22.4 | 132 | 5.91
6 | FC(F)(F)c1ccc(CNc2nsc3ccc(Cl)cc23)cc1 [JMM138, 5-Chloro-N-(4-(trifluoromethyl)benzyl)benzo[d]isothiazol-3-amine] | 22.9 | 25.1 | 1.10
7 | COc1ccc2snc(N(C)Cc3ccc(OCc4ccccc4)cc3)c2c1 [JMM095] | 7.76 | 72.4 | 9.25
8 | c1ccc(COc2ccc(CNc3nsc4cnccc34)cc2)cc1 [JMM077] | 6.46 | 61.7 | 9.60
9 | c1ccc(CNc2ccc(CNc3nsc4ccc(OCc5ccccc5)cc34)cc2)cc1 [JMM122, N-(4-(Benzylamino)benzyl)-5-(benzyloxy)benzo[d]isothiazol-3-amine] | 4.68 | 324 | 69.07
10 | CN(Cc1ccc(C(F)(F)F)cc1)c1nsc2cnccc12 [JMM084] | 4.57 | 23.4 | 5.13
11 | COc1ccc(COc2nsc3ccccc23)cc1OC [JMM104] | 105 | 63.1 | 0.60
12 | COc1ccc(CN(C)c2nsc3ccc(OCc4ccccc4)cc23)cc1 [JMM107, 5-(Benzyloxy)-N-(4-methoxybenzyl)-N-methylbenzo[d]isothiazol-3-amine] | 85.1 | 87.1 | 1.04
13 | COc1ccc(CNc2n[nH]c3ccccc23)cc1OC [JMM047] | 60.3 | 170 | 2.85
14 | COc1ccc(CNc2ccc(F)cn2)cc1OC [JMM046] | 214 | 479 | 2.24
15 | Fc1cccc2c(NCc3ccc(C(F)(F)F)cc3)nsc12 [JMM027] | 53.7 | 52.5 | 0.98
16 | FC(F)(F)c1ccc(CN(Cc2ccccc2)c2nsc3ccccc23)cc1 [JMM072] | 13.5 | 155 | 11.52
17 | C[C@@H](Nc1nsc2ccccc12)c1cccc2ccccc12 [JMM102] | 162 | 417 | 2.54

More lines, in order of falling EC50 (NPEPPS), values ahead:

Row | EC50 (NPEPPS) [µM] | Structure (SMILES) | IC50 (HEK293T cells) [µM] | Therapeutic index (HEK293T cells)
18 | 398 | COc1ccc(CNc2nsc3ccc(OC)cc23)cc1 [JMM097] | 229 | 0.57
19 | 240 | CN(C)c1ccc(CNc2nsc3ccccc23)cc1 [JMM019] | 195 | 0.82
20 | 200 | CC(Nc1nsc2ccccc12)c1ccccc1 (stereo not drawn) [JMM075] | 132 | 0.65
21 | 126 | c1ccc(COc2ccc3snc(NCc4ccc(OCc5cccc6ccccc56)cc4)c3c2)cc1 [JMM106, 5-(Benzyloxy)-N-(4-(naphthalen-1-ylmethoxy)benzyl)benzo[d]isothiazol-3-amine] | 794 | 6.26
22 | 57.5 | Fc1ccc(COc2ccc(CNc3nsc4ccc(OCc5ccccc5)cc34)cc2)cc1 [JMM117, 5-(Benzyloxy)-N-(4-((4-fluorobenzyl)oxy)benzyl)benzo[d]isothiazol-3-amine] | 110 | 1.88
23 | 52.5 | FC(F)(F)Oc1ccccc1CNc1nsc2ccccc12 [JMM055] | 126 | 2.43
24 | 51.3 | Cc1ccc(CNc2nsc3ccccc23)cc1 [JMM023] | 229 | 4.47
25 | 44.7 | CCN(Cc1ccc(C(F)(F)F)cc1)c1nsc2ccccc12 [JMM092] | 126 | 2.84
26 | 44.7 | c1ccc(COc2ccc3snc(NCc4ccc(Oc5ccccc5)cc4)c3c2)cc1 [JMM115, 5-(Benzyloxy)-N-(4-phenoxybenzyl)benzo[d]isothiazol-3-amine] | 263 | 5.83
27 | 31.6 | Fc1cccc2c(NC(c3ccccc3)c3ccccc3)nsc12 [JMM057] | 151 | 4.85
28 | 27.5 | Clc1ccc2snc(NCc3ccc(OCc4ccccc4)cc3)c2c1 [JMM129, N-(4-(Benzyloxy)benzyl)-5-chlorobenzo[d]isothiazol-3-amine] | 661 | 24.01
29 | 25.7 | Fc1ccccc1COc1ccc(CNc2nsc3ccc(OCc4ccccc4)cc23)cc1 [JMM118, 5-(Benzyloxy)-N-(4-((2-fluorobenzyl)oxy)benzyl)benzo[d]isothiazol-3-amine] | 15.5 | 0.60
30 | 20.4 | FC(F)(F)c1ccc(CNc2noc3ccccc23)cc1 [JMM039] | 61.7 | 3.03
31 | 17.8 | COc1ccc(CN(Cc2ccc(C(F)(F)F)cc2)c2nsc3ccccc23)cc1OC [JMM069] | 1510 | 84.99
32 | 11.5 | c1ccc(COc2ccc3snc(NCc4ccc(OCC5CCCCC5)cc4)c3c2)cc1 [JMM127, 5-(Benzyloxy)-N-(4-(cyclohexylmethoxy)benzyl)benzo[d]isothiazol-3-amine] | 15.8 | 1.38
33 | 10.5 | FC(F)(F)c1ccc(CNc2nsc3ccccc23)c(C(F)(F)F)c1 [JMM061] | 72.4 | 6.85
34 | 7.41 | FC(F)(F)c1ccc(COc2ccc(CNc3nsc4ccccc34)cc2)cc1 [JMM031] | 77.6 | 10.38
35 | 6.46 | FC(F)(F)c1ccc(CNc2nsc3ccc(OCc4ccccc4)cc23)cc1 [JMM066] | 174 | 27.03
36 | 5.01 | CN(Cc1ccc(Cl)c(Cl)c1)c1nsc2ccc(OCc3ccccc3)cc12 [JMM093] | 20.4 | 4.06
37 | 2.29 | CN(Cc1ccc(OCc2ccccc2)cc1)c1nsc2cnccc12 [JMM078] | 49 | 21.66
